Experimental data taken from ChEMBL document CHEMBL1126257, “Fluoronaphthyridines and -quinolones as antibacterial agents. 5. Synthesis and antimicrobial activity of chiral 1-tert-butyl-6-fluoro-7-substituted-naphthyridones” (J Med Chem, 1992).
In brackets after ≈: the same amount, converted by molar mass.

What was measured:
[1] = test system: Enterococcus faecalis; assay: In vitro antibacterial activity against Enterococcus faecalis A9809.; type: functional
[2] = test system: Enterobacter cloacae; assay: In vitro antibacterial activity against Enterobacter cloacae A 9656.; type: functional
[3] = test system: Enterococcus faecium; assay: In vitro antibacterial activity against Enterococcus faecium A 24885.; type: functional
[4] = test system: Escherichia coli; assay: In vitro antibacterial activity against Escherichia coli A 15119.; type: functional
[5] = test system: Klebsiella pneumoniae; assay: In vitro antibacterial activity against Klebsiella pneumoniae A 9664.; type: functional
[6] = test system: Morganella morganii; assay: In vitro antibacterial activity against Morganella morganii A 15153.; type: functional
[7] = test system: Pseudomonas aeruginosa; assay: In vitro antibacterial activity against Pseudomonas aeruginosa A 9243.; type: functional
[8] = test system: Escherichia coli; assay: (§1) In vivo potency on systemic infection caused by after oral administration to mice expressed as median protective dose.; type: functional; details: read-out: PD50
[9] = test system: Klebsiella pneumoniae; assay: as §1; type: functional; details: read-out: PD50
[10] = test system: Pseudomonas aeruginosa; assay: as §1; type: functional; details: read-out: PD50
[11] = test system: Serratia marcescens; assay: In vitro antibacterial activity against Serratia marcescens A 20019.; type: functional
[12] = test system: Staphylococcus aureus; assay: In vitro antibacterial activity against Staphylococcus aureus A9537.; type: functional
[13] = test system: Staphylococcus aureus; assay: animal or person; details: in Mus musculus, po, read-out: PD50
Description: In vivo potency on systemic infection caused by Staphylococcus aureus A9537 after oral administration to mice expressed as median protective dose.

[14] = test system: Escherichia coli; assay: In vivo potency on systemic infection caused by Escherichia coli A 15119 after oral administration to mice expressed as median protective dose.; type: functional; details: read-out: PD50
[15] = test system: Klebsiella pneumoniae; assay: In vivo potency on systemic infection caused by Klebsiella pneumoniae A 9664 after oral administration to mice expressed as median protective dose.; type: functional; details: read-out: PD50
[16] = test system: Klebsiella pneumoniae; assay: In vivo potency on systemic infection caused by after oral administration to mice expressed as median protective dose perorally; type: functional; details: read-out: PD50
[17] = test system: Escherichia coli; assay: In vivo potency on systemic infection caused Escherichia coli A 15119 by after oral administration to mice expressed as median protective dose.; type: functional; details: read-out: PD50
[18] = in vivo; details: mouse, po, 50 mg/kg
[19] = Enterococcus faecalis, read-out: MIC
[20] = Enterobacter cloacae, read-out: MIC
[21] = Enterococcus faecium, read-out: MIC
[22] = Escherichia coli, read-out: MIC
[23] = Klebsiella pneumoniae, read-out: MIC
[24] = Morganella morganii, read-out: MIC
[25] = Pseudomonas aeruginosa, read-out: MIC
[26] = Serratia marcescens, read-out: MIC
[27] = Staphylococcus aureus, read-out: MIC

| SMILES | MIC [1, 19] [µg/mL] | MIC [2, 20] [µg/mL] | MIC [3, 21] [µg/mL] | MIC [4, 22] [µg/mL] | MIC [5, 23] [µg/mL] | MIC [6, 24] [µg/mL] | MIC [7, 25] [µg/mL] | MIC [11, 26] [µg/mL] | MIC [12, 27] [µg/mL] | also measured |
| --- | --- | --- | --- | --- | --- | --- | --- | --- | --- | --- |
| C[C@H]1CN(c2nc3c(cc2F)c(=O)c(C(=O)O)cn3C(C)(C)C)C[C@H]1N | 0.25 (≈ 0.69 µM) | 0.13 (≈ 0.359 µM) | 1 (≈ 2.76 µM) | 0.016 (≈ 0.0441 µM) | 0.5 (≈ 1.38 µM) | 0.13 (≈ 0.359 µM) | 1 (≈ 2.76 µM) | 0.13 (≈ 0.359 µM) | 0.008 (≈ 0.0221 µM) | ED50 [8]: 1.4 mg/kg; ED50 [9]: 3.9 mg/kg; ED50 [10]: 4.7 mg/kg; ED50 [13]: 1 mg/kg |
| CC(C)(C)n1cc(C(=O)O)c(=O)c2cc(F)c(N3CC[C@H](N)C3)nc21 | 0.03 (≈ 0.0861 µM) | 0.13 (≈ 0.373 µM) | 0.5 (≈ 1.44 µM) | 0.015 (≈ 0.0431 µM) | 0.03 (≈ 0.0861 µM) | 0.13 (≈ 0.373 µM) | 0.13 (≈ 0.373 µM) | 0.13 (≈ 0.373 µM) | 0.0005 (≈ 0.00144 µM) | ED50 [14]: 1.2 mg/kg; ED50 [15]: 3.5 mg/kg |
| C[C@@H]1CN(c2nc3c(cc2F)c(=O)c(C(=O)O)cn3C(C)(C)C)C[C@H]1N | 0.06 (≈ 0.166 µM) | 0.016 (≈ 0.0441 µM) | 0.5 (≈ 1.38 µM) | 0.016 (≈ 0.0441 µM) | 0.03 (≈ 0.0828 µM) | 0.25 (≈ 0.69 µM) | 0.5 (≈ 1.38 µM) | 0.25 (≈ 0.69 µM) | 0.002 (≈ 0.00552 µM) | ED50 [16]: 0.81 mg/kg; ED50 [8]: 2.1 mg/kg; ED50 [10]: 5.5 mg/kg; ED50 [13]: 1.2 mg/kg |
| C[C@H]1C[C@@H](N)CN1c1nc2c(cc1F)c(=O)c(C(=O)O)cn2C(C)(C)C | 0.25 (≈ 0.69 µM) | 0.03 (≈ 0.0828 µM) | 2 (≈ 5.52 µM) | 0.03 (≈ 0.0828 µM) | 0.06 (≈ 0.166 µM) | 0.5 (≈ 1.38 µM) | 2 (≈ 5.52 µM) | 0.5 (≈ 1.38 µM) | 0.015 (≈ 0.0414 µM) | – |
| C[C@@H]1C[C@H](N)CN1c1nc2c(cc1F)c(=O)c(C(=O)O)cn2C(C)(C)C | 0.5 (≈ 1.38 µM) | 0.25 (≈ 0.69 µM) | 2 (≈ 5.52 µM) | 0.25 (≈ 0.69 µM) | 0.25 (≈ 0.69 µM) | 2 (≈ 5.52 µM) | 8 (≈ 22.1 µM) | 2 (≈ 5.52 µM) | 0.13 (≈ 0.359 µM) | – |
| CC(C)(C)n1cc(C(=O)O)c(=O)c2cc(F)c(N3CC[C@@H](N)C3)nc21 | 0.13 (≈ 0.373 µM) | 0.06 (≈ 0.172 µM) | 1 (≈ 2.87 µM) | 0.06 (≈ 0.172 µM) | 0.13 (≈ 0.373 µM) | 0.25 (≈ 0.718 µM) | 0.25 (≈ 0.718 µM) | 0.25 (≈ 0.718 µM) | 0.015 (≈ 0.0431 µM) | ED50 [15]: 4.9 mg/kg; ED50 [17]: 4.9 mg/kg |
| CN[C@@H]1CCN(c2nc3c(cc2F)c(=O)c(C(=O)O)cn3C(C)(C)C)C1 | 1 (≈ 2.76 µM) | 0.13 (≈ 0.359 µM) | 8 (≈ 22.1 µM) | 0.06 (≈ 0.166 µM) | 0.13 (≈ 0.359 µM) | 0.5 (≈ 1.38 µM) | 1 (≈ 2.76 µM) | 0.5 (≈ 1.38 µM) | 0.03 (≈ 0.0828 µM) | – |
| CN[C@H]1CCN(c2nc3c(cc2F)c(=O)c(C(=O)O)cn3C(C)(C)C)C1 | 1 (≈ 2.76 µM) | 0.06 (≈ 0.166 µM) | 2 (≈ 5.52 µM) | 0.03 (≈ 0.0828 µM) | 0.06 (≈ 0.166 µM) | 0.25 (≈ 0.69 µM) | 0.25 (≈ 0.69 µM) | 0.25 (≈ 0.69 µM) | 0.015 (≈ 0.0414 µM) | ED50 [8]: 1.2 mg/kg; ED50 [9]: 2.6 mg/kg; ED50 [10]: 6.1 mg/kg; ED50 [13]: 0.31 mg/kg |
| C[C@@H]1C[C@@H](N)CN1c1nc2c(cc1F)c(=O)c(C(=O)O)cn2C(C)(C)C (stereo in doubt; 67) | – | – | – | – | – | – | – | – | – | MIC [1]: 1 µg/mL (≈ 2.76 µM); MIC [2]: 0.5 µg/mL (≈ 1.38 µM); MIC [3]: 8 µg/mL (≈ 22.1 µM); MIC [4]: 0.25 µg/mL (≈ 0.69 µM); MIC [5]: 0.5 µg/mL (≈ 1.38 µM); MIC [6]: 4 µg/mL (≈ 11 µM); MIC [7]: 16 µg/mL (≈ 44.1 µM); MIC [11]: 2 µg/mL (≈ 5.52 µM); MIC [12]: 0.13 µg/mL (≈ 0.359 µM) |
| C[C@@H]1C[C@@H](N)CN1c1nc2c(cc1F)c(=O)c(C(=O)O)cn2C(C)(C)C (stereo in doubt; 68) | – | – | – | – | 0.5 (≈ 1.38 µM) | – | – | – | – | MIC [1]: 0.03 µg/mL (≈ 0.0828 µM); MIC [2]: 0.13 µg/mL (≈ 0.359 µM); MIC [3]: 0.5 µg/mL (≈ 1.38 µM); MIC [4]: 0.016 µg/mL (≈ 0.0441 µM); MIC [6]: 0.25 µg/mL (≈ 0.69 µM); MIC [7]: 0.5 µg/mL (≈ 1.38 µM); ED50 [8]: 2.6 mg/kg; ED50 [9]: 8.2 mg/kg; ED50 [10]: 14.4 mg/kg; MIC [11]: 0.5 µg/mL (≈ 1.38 µM); MIC [12]: 0.002 µg/mL (≈ 0.00552 µM); ED50 [13]: 0.9 mg/kg |
| O=C(O)c1cn(C2CC2)c2cc(N3CCNCC3)c(F)cc2c1=O [CIPROFLOXACIN] | – | – | 4 (≈ 12.1 µM) | – | 0.06 (≈ 0.181 µM) | 0.06 (≈ 0.181 µM) | – | 0.03 (≈ 0.0905 µM) | 0.06 (≈ 0.181 µM) | ED50 [8]: 0.7 mg/kg; ED50 [9]: 1.5 mg/kg; ED50 [10]: 5 mg/kg; Cmax [18]: 5900 ng/mL; ED50 [13]: 4 mg/kg |

Continued, in another order:

| MIC [1, 19] [µg/mL] | MIC [2, 20] [µg/mL] | MIC [3, 21] [µg/mL] | MIC [4, 22] [µg/mL] | MIC [5, 23] [µg/mL] | MIC [6, 24] [µg/mL] | MIC [7, 25] [µg/mL] | MIC [11, 26] [µg/mL] | MIC [12, 27] [µg/mL] | SMILES | also measured |
| --- | --- | --- | --- | --- | --- | --- | --- | --- | --- | --- |
| 0.25 (≈ 0.69 µM) | 0.03 (≈ 0.0828 µM) | 4 (≈ 11 µM) | 0.06 (≈ 0.166 µM) | 0.25 (≈ 0.69 µM) | 0.25 (≈ 0.69 µM) | 2 (≈ 5.52 µM) | 0.5 (≈ 1.38 µM) | 0.015 (≈ 0.0414 µM) | C[C@H]1CN(c2nc3c(cc2F)c(=O)c(C(=O)O)cn3C(C)(C)C)C[C@@H]1N | – |
| 0.5 (≈ 1.38 µM) | 0.03 (≈ 0.0828 µM) | 4 (≈ 11 µM) | 0.13 (≈ 0.359 µM) | 0.06 (≈ 0.166 µM) | 0.5 (≈ 1.38 µM) | 1 (≈ 2.76 µM) | 0.5 (≈ 1.38 µM) | 0.015 (≈ 0.0414 µM) | C[C@@H]1CN(c2nc3c(cc2F)c(=O)c(C(=O)O)cn3C(C)(C)C)C[C@@H]1N | – |
| 0.25 (≈ 0.664 µM) | 0.03 (≈ 0.0797 µM) | 2 (≈ 5.31 µM) | 0.06 (≈ 0.159 µM) | 0.13 (≈ 0.345 µM) | 0.5 (≈ 1.33 µM) | 2 (≈ 5.31 µM) | 0.5 (≈ 1.33 µM) | 0.015 (≈ 0.0398 µM) | CC1(C)CN(c2nc3c(cc2F)c(=O)c(C(=O)O)cn3C(C)(C)C)C[C@H]1N | – |
| 4 (≈ 10.6 µM) | 0.25 (≈ 0.664 µM) | 4 (≈ 10.6 µM) | 0.06 (≈ 0.159 µM) | 0.25 (≈ 0.664 µM) | 0.25 (≈ 0.664 µM) | 4 (≈ 10.6 µM) | 0.25 (≈ 0.664 µM) | 0.03 (≈ 0.0797 µM) | CC1(C)CN(c2nc3c(cc2F)c(=O)c(C(=O)O)cn3C(C)(C)C)C[C@@H]1N | – |
| 0.5 (≈ 1.33 µM) | 0.03 (≈ 0.0797 µM) | 4 (≈ 10.6 µM) | 0.015 (≈ 0.0398 µM) | 0.06 (≈ 0.159 µM) | – | 2 (≈ 5.31 µM) | 1 (≈ 2.66 µM) | 0.03 (≈ 0.0797 µM) | CN(C)[C@H]1CCN(c2nc3c(cc2F)c(=O)c(C(=O)O)cn3C(C)(C)C)C1 | – |
| 1 (≈ 2.66 µM) | 1 (≈ 2.66 µM) | 8 (≈ 21.3 µM) | 0.25 (≈ 0.664 µM) | 0.13 (≈ 0.345 µM) | 0.5 (≈ 1.33 µM) | 1 (≈ 2.66 µM) | 1 (≈ 2.66 µM) | 0.03 (≈ 0.0797 µM) | CN(C)C1CCN(c2nc3c(cc2F)c(=O)c(C(=O)O)cn3C(C)(C)C)C1 (stereo not drawn) | – |
